Measured values as given in patent US11655246B2, “Aminothiazole compounds as inhibitors of CTPS1” (STEP PHARMA S.A.S., priority 2017, dated 2023).

target: T1, human CTPS1 (Homo sapiens, UniProt P17812); experiment: Human CTPS1 enzyme inhibition (ADP-Glo Max assay); type: biochemical; conditions: Table 17, 25° C., read-out: CTPS1 (Human CTPS1 Enzyme Inhibition data grouped by potency range)
T1 construct: purchased Proteros biostructures GmbH
T1 sequence (P17812 1-591): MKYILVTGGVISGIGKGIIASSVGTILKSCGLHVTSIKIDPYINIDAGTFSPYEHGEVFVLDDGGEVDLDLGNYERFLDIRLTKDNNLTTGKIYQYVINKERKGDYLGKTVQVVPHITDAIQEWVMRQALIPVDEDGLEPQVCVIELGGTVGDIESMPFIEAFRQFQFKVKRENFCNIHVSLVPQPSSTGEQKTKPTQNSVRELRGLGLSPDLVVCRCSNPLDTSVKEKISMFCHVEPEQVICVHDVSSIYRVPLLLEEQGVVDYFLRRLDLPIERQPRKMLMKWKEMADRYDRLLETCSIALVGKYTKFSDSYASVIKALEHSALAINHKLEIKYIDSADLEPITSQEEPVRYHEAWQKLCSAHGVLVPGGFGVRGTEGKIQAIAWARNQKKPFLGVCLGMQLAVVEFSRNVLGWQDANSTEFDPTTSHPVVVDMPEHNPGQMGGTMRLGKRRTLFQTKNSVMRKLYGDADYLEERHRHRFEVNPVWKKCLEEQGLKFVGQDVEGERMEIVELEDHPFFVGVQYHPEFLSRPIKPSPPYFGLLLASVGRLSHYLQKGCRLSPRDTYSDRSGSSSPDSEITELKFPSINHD
Method: The enzyme inhibitory activities of compounds invented against the target of interest were determined using the ADP-Glo™ Max assay (Promega, UK). Assays for human CTPS1 were performed in 1× assay buffer containing 50 mM Tris, 10 mM MgCl2, 0.01% Tween-20, pH to 8.0 accordingly. Finally, immediately before use, L-cysteine was added to the 1× assay buffer to a final concentration of 2 mM. All reagents are from Sigma-Aldrich unless specified otherwise.
3× human CTPS1 protein was prepared in 1× assay buffer to the final working protein concentration required for the reaction. A 2 uL volume per well of 3× human CTPS1 protein was mixed with 2 uL per well of 3× test compound (compound prepared in 1× assay buffer to an appropriate final 3× compound concentration respective to the concentration response curve designed for the compounds under test) for 10 minutes at 25° C. […] ADP-Glo™ Max reagent was added for 60 minutes (6 uL per well) and subsequently ADP-Glo™ Max development reagent was added for 60 minutes (12 uL per well) prior to signal detection in a microplate reader (EnVision® Multilabel Reader, Perkin Elmer). Following each reagent addition over the course of the assay, assay plates were pulse centrifuged for 30 seconds at 500 rpm.
In all cases, the enzyme converts ATP to ADP and the ADP-Glo™ Max reagent subsequently depletes any remaining endogenous ATP in the reaction system. The ADP-Glo™ Max detection reagent converts the ADP that has been enzymatically produced back into ATP and using ATP as a substrate together with luciferin for the enzyme luciferase, light is generated which produces a detectable luminescence. […] The percentage inhibition produced by each concentration of compound was calculated using the equation shown below: […]

Compound | IC50
CC(C)C(C(=O)Nc1ccc(-c2cncnc2)cc1)c1csc(NS(=O)(=O)C2CC2)n1 (stereo not shown) [T11, 2-(2-(cyclopropanesulfonamido)thiazol-4-yl)-3-methyl-N-(4-(pyrimidin-5-yl)phenyl)butanamide] | 100 to 1000 nM
COc1cncc(-c2ccc(NC(=O)C(C)(C)c3csc(NS(=O)(=O)C4CC4)n3)cc2)c1 [T15, 2-(2-(cyclopropanesulfonamido)thiazol-4-yl)-N-(4-(5-methoxypyridin-3-yl)phenyl)-2-methylpropanamide] | 100 to 1000 nM
O=C(Cc1csc(NS(=O)(=O)C2CC2)n1)Nc1ccc(-c2cccnc2)cc1Cl [T16, N-(2-chloro-4-(pyridin-3-yl)phenyl)-2-(2-(cyclopropanesulfonamido)thiazol-4-yl)acetamide] | 100 to 1000 nM
Cc1sc(NS(=O)(=O)C2CC2)nc1C(C)(C)C(=O)Nc1ccc(-c2cncc(C(F)(F)F)n2)cc1 [T17, 2-(2-(cyclopropanesulfonamido)-5-methylthiazol-4-yl)-2-methyl-N-(4-(6-(trifluoromethyl)pyrazin-2-yl)phenyl)propanamide] | 100 to 1000 nM
CC(C)(C(=O)Nc1ccc(-c2cncnc2)cc1)c1csc(NS(=O)(=O)C2CC2)n1 [T18, 2-(2-(cyclopropanesulfonamido)thiazol-4-yl)-2-methyl-N-(4-(pyrimidin-5-yl)phenyl)propanamide] | < 100 nM
CN(C)C(=O)c1cncc(-c2ccc(NC(=O)C(C)(C)c3csc(NS(=O)(=O)C4CC4)n3)cc2)n1 [T19, 6-(4-(2-(2-(cyclopropanesulfonamido)thiazol-4-yl)-2-methylpropanamido)phenyl)-N,N-dimethylpyrazine-2-carboxamide] | 100 to 1000 nM
CC(C)(C(=O)Nc1ncc(-c2cncc(C#N)c2)cn1)c1csc(NS(=O)(=O)C2CC2)n1 [T20, N-(5-(5-cyanopyridin-3-yl)pyrimidin-2-yl)-2-(2-(cyclopropanesulfonamido)thiazol-4-yl)-2-methylpropanamide] | 100 to 1000 nM
O=C(Cc1nc(NS(=O)(=O)C2CC2)sc1Cl)Nc1ccc(-c2ccccc2)cc1 [T21, N-([1,1′-biphenyl]-4-yl)-2-(5-chloro-2-(cyclopropanesulfonamido)thiazol-4-yl)acetamide] | 1000 to 10000 nM
C#Cc1cncc(-c2ccc(NC(=O)C(CC)c3csc(NS(=O)(=O)C4CC4)n3)cc2)n1 (stereo not shown) [T22, 2-(2-(cyclopropanesulfonamido)thiazol-4-yl)-N-(4-(6-ethynylpyrazin-2-yl)phenyl)butanamide] | < 100 nM
CC(C(=O)Nc1ccc(-c2cccnc2)nc1)c1csc(NS(=O)(=O)C2CC2)n1 (stereo not shown) [T27] | 100 to 1000 nM
CCC(C(=O)Nc1ccc(-c2cncc(OC)n2)cc1)c1csc(NS(=O)(=O)C2CC2)n1 (stereo not shown) [T33] | < 100 nM
CC(C)(C(=O)Nc1ccc(-c2cnccn2)c(F)c1)c1csc(NS(=O)(=O)C2CC2)n1 [T39] | 100 to 1000 nM
CC(C)(C(=O)Nc1ccc(-c2cccnc2)cc1Cl)c1csc(NS(=O)(=O)C2CC2)n1 [T41] | 100 to 1000 nM

More lines, now with the values ahead:

IC50 | Compound
< 100 nM | COc1cncc(-c2ccc(NC(=O)C(OC)c3csc(NS(=O)(=O)C4CC4)n3)cc2)n1 (stereo not shown) [T57]
< 100 nM | CC(C)OC(C(=O)Nc1ccc(-c2cncc(Cl)c2)cc1)c1csc(NS(=O)(=O)C2CC2)n1 (stereo not shown) [T58]
< 100 nM | COCCC(C(=O)Nc1ccc(-c2cncc(C(F)(F)F)n2)cn1)c1csc(NS(=O)(=O)C2CC2)n1 (stereo not shown) [T59]
1000 to 10000 nM | CCC(C(=O)Nc1ccc(-c2ccnnc2)cc1)c1csc(NS(=O)(=O)C2CC2)n1 (stereo not shown) [T69]
100 to 1000 nM | CCC(C(=O)Nc1ccc(-c2cnccn2)cc1)c1csc(NS(=O)(=O)C2CC2)n1 (stereo not shown) [T70]
< 100 nM | COCCC(C(=O)Nc1ccc(-c2cncc(Cl)c2)cc1)c1csc(NS(=O)(=O)C2CC2)n1 (stereo not shown) [T71]
< 100 nM | CCC(C(=O)Nc1ccc(-c2cncc(C(F)(F)F)n2)cc1)c1csc(NS(=O)(=O)C2CC2)n1 (stereo not shown) [T73]
100 to 1000 nM | CC(C)C(C(=O)Nc1ccc(-c2cnccn2)cc1)c1csc(NS(=O)(=O)C2CC2)n1 (stereo not shown) [T74]
< 100 nM | CCCOc1cncc(-c2ccc(NC(=O)C(CC)c3csc(NS(=O)(=O)C4CC4)n3)cc2)n1 (stereo not shown) [T75]
